Measured values as given in PubChem BioAssay (NCI).
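Five concentrations, 48 hours, 96-well plates. The concentration for full growth arrest is given as TGI.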

Assays:
Assay in all cases: NCI anticancer screen, dose series, 48 h
NCI-H23 lung = test system: NCI-H23 lung
ACHN renal = test system: ACHN renal
SF-295 CNS = test system: SF-295 CNS
NCI-H522 lung = test system: NCI-H522 lung
786-0 renal = test system: 786-0 renal
OVCAR-8 ovarian = test system: OVCAR-8 ovarian
RPMI-8226 leukemia = test system: RPMI-8226 leukemia
K-562 leukemia = test system: K-562 leukemia
EKVX NSCLC = test system: EKVX NSCLC
A498 renal = test system: A498 renal
NCI-H226 lung = test system: NCI-H226 lung
SR leukemia = test system: SR leukemia
MCF7 breast = test system: MCF7 breast
NCI-H460 lung = test system: NCI-H460 lung
UO-31 renal = test system: UO-31 renal
SF-539 CNS = test system: SF-539 CNS
HCT-116 colon = test system: HCT-116 colon
KM12 colon = test system: KM12 colon
UACC-62 melanoma = test system: UACC-62 melanoma
IGROV1 ovarian = test system: IGROV1 ovarian

Compound | TGI (NCI-H23 lung) | TGI (ACHN renal) | TGI (SF-295 CNS) | TGI (NCI-H522 lung) | TGI (786-0 renal) | TGI (OVCAR-8 ovarian) | TGI (RPMI-8226 leukemia) | TGI (K-562 leukemia) | TGI (EKVX NSCLC) | TGI (A498 renal) | TGI (NCI-H226 lung) | TGI (SR leukemia) | TGI (MCF7 breast) | TGI (NCI-H460 lung) | TGI (UO-31 renal) | TGI (SF-539 CNS) | TGI (HCT-116 colon) | TGI (KM12 colon) | TGI (UACC-62 melanoma) | TGI (IGROV1 ovarian)
CCCCCCOc1ccc(Nc2c(O)c3c(c(O)c2Cl)C(=O)C=CC3=O)cc1 | 4.95 µM | > 10 µM | > 10 µM | 3.98 µM | > 7.32 µM | > 5.31 µM | 5.11 µM | 8.92 µM | > 10 µM | > 10 µM | > 10 µM | 5.33 µM | > 4.88 µM | 6.52 µM | > 5.81 µM | > 6.06 µM | > 6.12 µM | > 7.66 µM | 7.99 µM | –
COc1ccc(NC(=O)N(C)CC2(O)CCC(C(C)(C)C)CC2)cc1 (stereo not drawn) | > 100 µM | > 100 µM | 91.7 µM | > 100 µM | > 100 µM | > 100 µM | 72.5 µM | > 100 µM | > 100 µM | > 100 µM | – | > 100 µM | > 100 µM | > 100 µM | > 100 µM | > 100 µM | > 100 µM | > 100 µM | 97.3 µM | > 100 µM
O=C1c2cccc3cccc(c23)C2NCCCN12 (stereo not drawn) | > 100 µM | > 100 µM | > 100 µM | 80.4 µM | > 100 µM | > 100 µM | – | > 100 µM | > 100 µM | > 100 µM | > 100 µM | > 100 µM | > 100 µM | > 100 µM | > 100 µM | – | > 100 µM | > 100 µM | > 100 µM | > 100 µM
COC(=O)C1(C(=O)OC)C/C(C)=C(/C)SCCCS1 | > 100 µM | > 100 µM | > 100 µM | > 100 µM | > 100 µM | > 100 µM | – | > 100 µM | > 100 µM | – | > 100 µM | > 100 µM | > 100 µM | > 100 µM | > 100 µM | > 100 µM | > 100 µM | > 100 µM | > 100 µM | > 100 µM
CC1=NC(=Cc2cc(Br)cc(Br)c2)C(=O)N1n1c(-c2ccccc2)nc2ccccc2c1=O | > 100 µM | > 100 µM | > 100 µM | > 100 µM | > 100 µM | > 100 µM | > 100 µM | > 100 µM | > 100 µM | – | > 100 µM | > 100 µM | > 100 µM | > 100 µM | > 100 µM | > 100 µM | > 100 µM | > 100 µM | > 100 µM | > 100 µM
Cc1cc2c(cc1C)C(=O)C1(C2)Cc2c(C)ccc(C)c2C1=O (stereo not drawn) | – | > 100 µM | > 100 µM | > 100 µM | > 100 µM | > 100 µM | > 100 µM | > 100 µM | > 100 µM | – | > 100 µM | > 100 µM | > 100 µM | > 100 µM | > 100 µM | > 100 µM | > 100 µM | > 100 µM | > 100 µM | > 100 µM
Cc1nn(C(=O)c2ccc(Cl)cc2)c2c1C(/C=C/c1ccccc1)SC(N)=N2 (stereo not drawn) | > 10 µM | > 10 µM | > 10 µM | > 10 µM | > 10 µM | > 10 µM | > 10 µM | > 10 µM | > 10 µM | – | > 10 µM | > 10 µM | > 10 µM | > 10 µM | – | > 10 µM | > 10 µM | > 10 µM | > 10 µM | > 10 µM
CC1C[C@]2(C)C(=NCCN)Nc3ccccc3[C@@H]2N(C)c2ccccc21 (stereo partly drawn) | 31.4 µM | 29.9 µM | 32 µM | – | 24.6 µM | 27.9 µM | 47.4 µM | 40.2 µM | 33 µM | 30.5 µM | 30.2 µM | 8.73 µM | 21.3 µM | 24 µM | 23.2 µM | 25.9 µM | 21 µM | 30 µM | 28.1 µM | 27.6 µM
COc1ccc2c(c1)nc1n2C(c2c(Cl)cccc2Cl)SC1 (stereo not drawn) | > 100 µM | > 100 µM | > 70.4 µM | – | > 100 µM | > 100 µM | > 100 µM | > 100 µM | > 100 µM | > 100 µM | > 100 µM | > 100 µM | > 37.5 µM | > 100 µM | > 100 µM | > 100 µM | > 81.2 µM | > 100 µM | > 100 µM | > 100 µM
N#Cc1[nH]c(=S)[nH]c1N | > 100 µM | > 100 µM | > 100 µM | > 100 µM | > 100 µM | > 100 µM | – | > 100 µM | > 100 µM | > 100 µM | > 100 µM | > 100 µM | > 100 µM | > 100 µM | > 100 µM | > 100 µM | > 100 µM | – | > 100 µM | > 100 µM
Nc1nc(NCC2(CO)CC2)cc(=O)[nH]1 | > 100 µM | > 100 µM | > 100 µM | > 100 µM | > 100 µM | > 100 µM | > 100 µM | > 100 µM | > 100 µM | > 100 µM | > 100 µM | > 100 µM | > 100 µM | > 100 µM | > 100 µM | – | > 100 µM | > 100 µM | > 100 µM | > 100 µM
CC(C)CC(NC(=O)C(CI)Cc1ccccc1)C(=O)Nc1ccccc1 (stereo not drawn) | > 100 µM | > 100 µM | > 100 µM | > 100 µM | > 100 µM | > 100 µM | > 100 µM | > 100 µM | > 100 µM | > 100 µM | – | > 100 µM | > 100 µM | > 100 µM | > 100 µM | > 100 µM | > 100 µM | > 100 µM | > 100 µM | > 100 µM
